For this experiment, the target named is SARS-CoV-2 M^pro (Severe acute respiratory syndrome coronavirus 2, UniProt P0DTD1). Put plainly: In vitro FRET enzymatic assay (screening at 1 µM and SAR IC50). In kind it is biochemical. Particulars: for inhibition at 1 µM: read-out: M^pro inhibition % (comp. conc. 1 µM).

As a reminder, the inhibition is the relative decrease from the control value, in per cent. Consider `N#Cc1cc(C(=O)N[C@H](CC2CCC2)C(=O)N[C@H](CC(=O)N[C@H](Cc2ccncc2)C(=O)O)Cc2c[nH]c3ccccc23)ccn1` [MP1], for which the inhibition at 1 µM worked out at 97%.

Take `N#Cc1cc(C(=O)N[C@H](CC2CCC2)C(=O)N[C@H](CC(=O)O)Cc2c[nH]c3ccccc23)ccn1` [MP2]: the “M^pro inhibition % (comp. conc. 1 µM)” value was 2.2% and the inhibition at 1 µM was around 2%.

With `N#Cc1cc(C(=O)N[C@H](CC2CCC2)C(=O)N[C@H](CC(=O)N[C@H](Cc2ccccc2)C(=O)O)Cc2c[nH]c3ccccc23)ccn1` [MP3], the “M^pro inhibition % (comp. conc. 1 µM)” value turned out to be 30.4% and the inhibition at 1 µM is around 30%.

For `N#Cc1cc(C(=O)N[C@H](CC2CCC2)C(=O)N[C@H](CC(=O)N[C@H](Cc2ccc(Cl)cc2)C(=O)O)Cc2c[nH]c3ccccc23)ccn1` [MP4], the inhibition at 1 µM was around 30%.

For `N#Cc1cc(C(=O)N[C@H](CC2CCC2)C(=O)NCCC(=O)N[C@H](Cc2ccncc2)C(=O)O)ccn1` [MP5], the “M^pro inhibition % (comp. conc. 1 µM)” value is on record as 8.1% and the inhibition at 1 µM was around 8%.

Take `N#Cc1cccc(C(=O)N[C@H](CC2CCC2)C(=O)N[C@H](CC(=O)N[C@H](Cc2ccncc2)C(=O)O)Cc2c[nH]c3ccccc23)c1` [MP6]: the “M^pro inhibition % (comp. conc. 1 µM)” value was determined as 17.8% and the inhibition at 1 µM was around 18%.

Regarding `O=Cc1cccc(C(=O)N[C@H](CC2CCC2)C(=O)N[C@H](CC(=O)N[C@H](Cc2ccncc2)C(=O)O)Cc2c[nH]c3ccccc23)c1` [MP7], the inhibition at 1 µM was found to be 100%.

Consider `CC(=O)c1cccc(C(=O)N[C@H](CC2CCC2)C(=O)N[C@H](CC(=O)N[C@H](Cc2ccncc2)C(=O)O)Cc2c[nH]c3ccccc23)c1` [MP8], for which the “M^pro inhibition % (comp. conc. 1 µM)” value is 18.2% and the inhibition at 1 µM was around 18%.

Turning to `CCCC[C@@H](NC(=O)c1ccnc(C#N)c1)C(=O)N[C@H](CC(=O)N[C@H](Cc1ccncc1)C(=O)O)Cc1c[nH]c2ccccc12` [MP9], the inhibition at 1 µM came out at 86.6%.

What is called IC50 is the midpoint of a concentration-inhibition curve. Read a low IC50 as greater potency in that assay. For `N#Cc1cc(C(=O)N[C@H](Cc2ccc(Cl)cc2)C(=O)N[C@H](CC(=O)N[C@H](Cc2ccncc2)C(=O)O)Cc2c[nH]c3ccccc23)ccn1` [MP10], the inhibition at 1 µM worked out at 95.7%. Inhibition (IC50 ± SEM) was half-maximal at 71 ± 7 nM (IC50).

For `N#Cc1cc(C(=O)N[C@H](Cc2ccc(Cl)c(Cl)c2)C(=O)N[C@H](CC(=O)N[C@H](Cc2ccncc2)C(=O)O)Cc2c[nH]c3ccccc23)ccn1` [MP11], the inhibition at 1 µM was 90.7%. The same compound registered an IC50 (IC50 ± SEM) of 69 ± 4 nM.

On to `N#Cc1cc(C(=O)N[C@H](CC2CCC2)C(=O)N[C@H](CC(=O)N[C@H](Cc2ccncc2)C(=O)NCc2ccccc2)Cc2c[nH]c3ccccc23)ccn1` [MP12], for which the inhibition at 1 µM amounted to 96.5%.

Consider `N#Cc1cc(C(=O)N[C@H](CC2CCC2)C(=O)N[C@H](CC(=O)N[C@H](Cc2ccncc2)C(=O)NCCN2CCOCC2)Cc2c[nH]c3ccccc23)ccn1` [MP13], for which the inhibition at 1 µM was determined as 94.2%. Besides, the IC50 (IC50 ± SEM) worked out at 47 ± 6 nM.

For `N#Cc1cc(C(=O)N[C@H](CC2CCC2)C(=O)N[C@H](CC(=O)N[C@H](Cc2ccncc2)C(=O)NCc2ccccn2)Cc2c[nH]c3ccccc23)ccn1` [MP14], the inhibition at 1 µM is 98.2%. Under “IC50 ± SEM”, this compound came in with a 50% inhibitory concentration (IC50) of 45 ± 9 nM.

For the compound `N#Cc1cc(C(=O)N[C@H](CC2CCC2)C(=O)N[C@H](CC(=O)N[C@H](Cc2ccncc2)C(=O)NCc2cccc(Cl)c2)Cc2c[nH]c3ccccc23)ccn1` [MP15], the inhibition at 1 µM is 66.8%.

As for `N#Cc1cc(C(=O)N[C@H](CC2CCC2)C(=O)N[C@H](CC(=O)N[C@H](Cc2ccncc2)C(=O)NCCc2c[nH]c3ccccc23)Cc2c[nH]c3ccccc23)ccn1` [MP16], the inhibition at 1 µM amounted to 94.7%. Besides, under “IC50 M^pro”, the IC50 amounted to 47 nM. Besides, half-maximal inhibition (IC50 ± SEM) (IC50) required 33 ± 3 nM.

Values taken from article PMC11459923, “Identification of novel and potent inhibitors of SARS-CoV-2 main protease from DNA-encoded chemical libraries” (Antimicrobial Agents and Chemotherapy, 2024).
